From PMC3159025 (2011)

Molecular target: T1, system xc− (obligate cystine-glutamate transporter) (Homo sapiens, UniProt Q9UPY5)
T1 sequence (Q9UPY5 1-501): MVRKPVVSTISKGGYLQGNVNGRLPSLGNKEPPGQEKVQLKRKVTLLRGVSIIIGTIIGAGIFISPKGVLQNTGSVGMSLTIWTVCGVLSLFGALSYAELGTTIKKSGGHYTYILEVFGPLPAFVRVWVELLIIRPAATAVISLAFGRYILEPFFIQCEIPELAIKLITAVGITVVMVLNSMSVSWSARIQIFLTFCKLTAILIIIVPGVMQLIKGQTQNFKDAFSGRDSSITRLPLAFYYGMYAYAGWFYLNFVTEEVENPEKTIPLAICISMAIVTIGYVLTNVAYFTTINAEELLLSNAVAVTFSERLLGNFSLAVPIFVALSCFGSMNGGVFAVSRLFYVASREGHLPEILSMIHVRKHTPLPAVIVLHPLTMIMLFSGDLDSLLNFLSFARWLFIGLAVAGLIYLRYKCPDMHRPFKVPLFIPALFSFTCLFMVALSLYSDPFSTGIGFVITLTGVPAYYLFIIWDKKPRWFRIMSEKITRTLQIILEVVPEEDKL
T1 sequence (P08195 2-529 partner): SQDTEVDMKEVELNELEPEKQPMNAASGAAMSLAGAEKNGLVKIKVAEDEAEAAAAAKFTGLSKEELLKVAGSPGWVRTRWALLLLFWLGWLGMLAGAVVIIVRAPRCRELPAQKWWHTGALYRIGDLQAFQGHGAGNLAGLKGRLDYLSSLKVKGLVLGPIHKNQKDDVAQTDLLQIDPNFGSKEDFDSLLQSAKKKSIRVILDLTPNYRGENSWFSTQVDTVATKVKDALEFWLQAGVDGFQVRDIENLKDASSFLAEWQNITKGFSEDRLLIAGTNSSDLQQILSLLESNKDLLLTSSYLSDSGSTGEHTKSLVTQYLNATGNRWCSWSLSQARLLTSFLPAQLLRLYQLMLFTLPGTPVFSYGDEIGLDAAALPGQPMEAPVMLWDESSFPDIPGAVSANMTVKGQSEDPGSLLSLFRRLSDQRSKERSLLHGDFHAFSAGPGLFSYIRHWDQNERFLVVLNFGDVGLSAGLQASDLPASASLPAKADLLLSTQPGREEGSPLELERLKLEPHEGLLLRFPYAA
Experiment: inhibition of 3H-L-glutamate uptake
Assay type: cell-based
Settings: SNB-19, read-out: Uptake ^a Sxc^-

activity at 500 µM: 22 ± 3%
SMILES: N[C@@H](CSSC[C@H](N)C(=O)O)C(=O)O [L-Cystine]
